These results are taken from US9694016B2 (Novartis AG, priority 2013, dated 2017).

The structures appear in SMILES notation. Like-named read-outs stand apart in the source and are kept apart here.

The target in assay [1] is C-Raf TR (truncated C-Raf protein, Δ1-324 deletion mutant) (Homo sapiens (Human), UniProt P04049). Format: biochemical. To be noted: truncated C-Raf approximately 4 nM, ATP 1 uM, 60 min pre-incubation, 1 hour reaction. The procedure: biotinylated Mek, kinase dead
biotinylated Mek, Kinase dead approximately 10 nM

Assay [2] addresses T1, b-Raf (V600E) (Homo sapiens (Human), UniProt P15056, V600E). To be noted: read-out: b-Raf IC-50; Table 2; AlphaScreen, 3 hours reaction. For orientation: Alpha assays give light when donor and acceptor beads are brought close together.
For assay [3], the target named is T1, b-Raf (V600E). The assay is described as follows: biochemical.

T1 sequence (P15056 whole entry V600E): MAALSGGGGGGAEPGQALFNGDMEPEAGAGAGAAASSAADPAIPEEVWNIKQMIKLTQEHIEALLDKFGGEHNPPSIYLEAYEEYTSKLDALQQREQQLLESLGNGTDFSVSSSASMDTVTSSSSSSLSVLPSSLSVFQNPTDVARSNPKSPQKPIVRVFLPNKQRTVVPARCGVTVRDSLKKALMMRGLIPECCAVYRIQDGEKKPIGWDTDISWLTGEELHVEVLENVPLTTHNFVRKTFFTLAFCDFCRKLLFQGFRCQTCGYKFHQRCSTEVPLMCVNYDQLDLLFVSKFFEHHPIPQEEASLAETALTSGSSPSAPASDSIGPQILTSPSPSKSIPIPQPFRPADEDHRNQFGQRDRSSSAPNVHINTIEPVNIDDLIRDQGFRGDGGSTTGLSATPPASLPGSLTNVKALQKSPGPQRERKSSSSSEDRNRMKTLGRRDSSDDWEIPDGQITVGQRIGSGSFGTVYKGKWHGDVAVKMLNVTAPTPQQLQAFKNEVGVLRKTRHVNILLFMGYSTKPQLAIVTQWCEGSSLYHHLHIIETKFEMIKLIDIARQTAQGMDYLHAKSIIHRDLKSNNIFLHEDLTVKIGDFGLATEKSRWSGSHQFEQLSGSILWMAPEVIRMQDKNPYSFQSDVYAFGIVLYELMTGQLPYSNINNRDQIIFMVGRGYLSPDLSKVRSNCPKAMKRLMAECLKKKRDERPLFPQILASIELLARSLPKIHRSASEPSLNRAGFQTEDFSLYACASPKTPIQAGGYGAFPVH

For the compound `Cc1ccc(NC(=O)c2cccc(C(F)(F)F)c2)cc1-c1csc(N2CCOCC2)n1` [Example 199, N-(4-methyl-3-(2-morpholinothiazol-4-yl)phenyl)-3-(trifluoromethyl)benzamide], the IC50 in assay [1] was 1.29 nM; on b-Raf (V600E) [2], 3.6 nM.

With `Cc1ccc(NC(=O)c2cccc(C(F)(F)F)c2)cc1-c1cn(C)c(=O)c(N2CCOCC2)n1` [Example 119, N-(4-methyl-3-(4-methyl-6-morpholino-5-oxo-4,5-dihydropyrazin-2-yl)phenyl)-3-(trifluoromethyl)benzamide], the IC50 is 0.27 nM in assay [1] and 0.4 nM at b-Raf (V600E) [2].

With `Cc1ccc(C(=O)Nc2cccc(C(F)(F)F)c2)cc1-c1ccnc(N2CCOCC2)c1` [Example 63, 4-Methyl-3-(2-morpholinopyridin-4-yl)-N-(3-(trifluoromethyl)phenyl)benzamide], the IC50 in assay [1] worked out at 0.508 nM; at b-Raf (V600E) [2] it was 2.1 nM.

`Cc1ccc(NC(=O)c2cccc(C(F)(F)F)c2)cc1-c1cncc(N2CCOCC2)n1` [Example 118, N-(4-methyl-3-(6-morpholinopyrazin-2-yl)phenyl)-3-(trifluoromethyl)benzamide]: the IC50 was determined as 0.308 nM in assay [1] and 0.7 nM on b-Raf (V600E) [2].

For `Cc1cc(C(=O)Nc2ccc(C)c(-c3cc4[nH]cnc4c(N4CCOCC4)n3)c2)n(C)n1` [Example 817, 1,3-dimethyl-N-(4-methyl-3-(4-morpholino-1H-imidazo[4,5-c]pyridin-6-yl)phenyl)-1H-pyrazole-5-carboxamide], the IC50 against b-Raf (V600E) [3] stood at 200 nM.

In turn, `CCNc1nc(-c2cc(C(=O)Nc3cccc(C(F)(F)F)c3)ccc2C)cc(N2CCOCC2)n1` [Example 710, 3-(2-(ethylamino)-6-morpholinopyrimidin-4-yl)-4-methyl-N-(3-(trifluoromethyl)phenyl)benzamide] returned an IC50 against b-Raf (V600E) [3] of 4 nM.

As for `Cc1ccc(C(=O)Nc2cccc(C(F)(F)F)c2)cc1-c1nc(N2CCOCC2)cc(N2CCOCC2)n1` [Example 14, 3-(4,6-dimorpholinopyrimidin-2-yl)-4-methyl-N-(3-(trifluoromethyl)phenyl)benzamide], the IC50 in assay [1] is 0.803 nM.

With `Cc1ccc(NC(=O)c2cccc(C(F)(F)F)c2)cc1-c1nc2c(c(N3CCOCC3)n1)CCNC2` [Example 834, N-(4-methyl-3-(4-morpholino-5,6,7,8-tetrahydropyrido[3,4-d]pyrimidin-2-yl)phenyl)-3-(trifluoromethyl)benzamide], the IC50 against b-Raf (V600E) [3] worked out at 0.6 nM.

With `Cc1ccc(NC(=O)c2cc(C3CC3)on2)cc1-c1cc2[nH]cnc2c(N2CCOCC2)n1` [Example 820, 5-cyclopropyl-N-(4-methyl-3-(4-morpholino-1H-imidazo[4,5-c]pyridin-6-yl)phenyl)isoxazole-3-carboxamide], at b-Raf (V600E) [3], the IC50 came out at 1.4 nM.

As for `Cc1ncc(NC(=O)c2cccc(C(F)(F)F)c2)cc1-c1cnc(OC[C@H](C)O)c(N2CCOCC2)c1` [Example 1022, (S)—N-(6′-(2-hydroxypropoxy)-2-methyl-5′-morpholino-[3,3′-bipyridin]-5-yl)-3-(trifluoromethyl)benzamide], at b-Raf (V600E) [3], the IC50 was determined as 1.49 nM.
